In brackets after ≈: the same amount, converted by molar mass. Read-outs that look alike come from different tables or passages of the source.
Tests used:
[1] = test system: P. lutzii Pb01 yeast cells; assay: Inhibition and sensitivity assay, P. lutzii Pb01 yeast cells growth (broth macro dilution / spot on MMcM agar); type: cell-based, Paracoccidioides lutzii; details: for MIC: read-out: minimal inhibitory concentration; for effect on P. lutzii Pb01 yeast cells growth: glucose or acetate as carbon source, 9 to 72 µg/mL
Protocol: Inhibition assays were performed by broth macro dilution method according to NCCLS M27-A2 guidelines with modifications. For the inhibition assays, yeast cells in their exponential growth phase were kept on solid MMcM for seven days at 36°C and inoculated in liquid MMcM medium. Sterile stock solution of the argentilactone, reduced argentilactone, epoxy argentilactone and diol argentilactone were freshly prepared in water and dimethyl sulfoxide (DMSO). Serial dilutions from stock solutions were prepared with sterile MMcM medium as the diluent, to yield final compound concentrations ranging from 9 to 72 µg/mL. Drug-free controls were included. Inocula concentrations were determined spectrophotometrically at 520 nm. The mixture was vortexed to disperse the aggregated cells. P. lutzii Pb01 was grown at 36°C, 200 rpm shaking for 10 days. For the sensitivity assay, 7-day-old P. lutzii Pb01 yeast cells were grown in liquid MMcM overnight at 36°C. Samples containing 10^5, 10^4, and 10^3 cells were spotted onto MMcM agar medium supplemented with argentilactone, reduced argentilactone, epoxy argentilactone, or diol argentilactone at concentrations of 9 µg/mL, 18 µg/mL, 36 µg/mL, or 72 µg/mL. […] The plates were incubated for 6 days at 36°C before being photographed.

[2] = test system: P. lutzii Pb01 yeast cells; assay: Viability assay of P. lutzii Pb01 yeast cells (Neubauer chamber); type: cell-based, Paracoccidioides lutzii; details: 18 µg/mL, after 6 h of incubation
Protocol: P. lutzii Pb01 yeast cells were sub-cultured every 7 days in solid Fava-Netto’s medium at 36°C. For viability experiments, yeast cells were kept in liquid McVeigh Morton (MMcM) chemically defined medium for 6 h at 36°C and viability of the cells determined by counting viable cells in a Neubauer chamber. All experiments were performed in triplicate.

[3] = test system: P. lutzii Pb01 differentiation from mycelium to yeast; assay: Transition from mycelium to yeast (dimorphism); type: cell-based, Paracoccidioides lutzii; details: glucose or acetate; 10 days at 36°C
Protocol: The differentiation from mycelium to yeast was performed in Mc Veigh and Morton (MMcM) liquid minimal medium containing glucose (0.11 M) or acetate (0.28 M) as the carbon source. The cultivation temperature was changed from 23°C to 36°C to allow the mycelium to yeast transition. The cells were previously grown in liquid medium for 18 h before changing the incubation temperature, which was maintained for 10 days. The appearance of yeast cells was monitored using a Neubauer chamber.

dermatophytes = test system: dermatophytes; set-up: method as in doi:10.1590/S0103-50532004000500023; details: cited from earlier work
MRC5 cells = assay: Toxicity to MRC5 cells; type: cell-based; details: 18 µg/mL; data not shown
PbICLc = PbICLc (Paracoccidioides lutzii, UniProt C1H8F5); assay: Enzymatic activity of native PbICL in crude protein extract of yeast cells (PbICLc); type: biochemical; details: for inhibition of native PbICL activity: crude extract of yeast cells; for Specific activity PbICLc Acetate: crude extract of yeast cells grown on acetate, control 0.080±0.004; for Specific activity PbICLc Acetate / IC50 / Specific activity PbICLc Glucose / IC50 PbICLc Acetate / IC50 PbICLc Glucose: N.I. = No inhibition found; for IC50 / IC50 PbICLc Acetate / IC50 PbICLc Glucose: crude extract; for Specific activity PbICLc Glucose: crude extract of yeast cells grown on glucose, control 0.010±0.002
Protocol: P. lutzii Pb01 yeast cells grown for 24 h in liquid minimal MMcM medium containing glucose or acetate as the carbon source were centrifuged for 5 min at 2.500×g. The proteins were extracted as previously described. The cells were washed with sterilized water and frozen in liquid nitrogen. The material was ground to a fine powder; resuspended in 500 µL of 50 mM potassium phosphate buffer (pH 7.0) supplemented with 1 mM dithiothreitol (DTT) and vigorously mixed with glass beads for 20 min at 4°C. The cell debris was removed by centrifugation for 15 min at 4°C and 5,000×g, and the supernatant was centrifuged for 15 min at 4°C and 12,000×g. The cell-free extract was used for the ICL activity assays or stored at −20°C for further analyses. Quantification of the protein content was performed according to Bradford.
(§1) ICL activity was determined according to Cruz et al.. Reactions were performed in 1 mL assay volume containing 2 mM threo-D,L-isocitrate (effective concentration of threo-D-isocitrate 1 mM), 2 mM MgCl2, 10 mM phenylhydrazine HCl, 2 mM dithiothreitol, and 50 mM Tris HCl buffer (pH 7.0). The product glyoxylate-phenylhydrazone was followed at 324 nm using an extinction coefficient of 16.8 mM^−1.cm^−1. One unit of enzyme activity was defined as the formation of 1 µmol of glyoxylate-phenylhydrazone per minute using threo-D,L-isocitrate as the substrate. The specific activities were given as U.mg^−1 protein.
(§2) The compound concentrations were 10 µM, 20 µM, 30 µM, and 40 µM for recombinant PbICL and 30 µM, 40 µM, 50 µM, 60 µM, 70 µM, 80 µM and 90 µM for native PbICL. 3-nitropropinate (50.7 µM) was used as positive control. To the assays of specific activity of PbICL from mycelium, transition, and yeast, the cells were cultured for 10 days on 23°C and 36°C, and were used 18 µg/mL of argentilactone.

PbICL = PbICL activity from phases of P. lutzii Pb01 cultured with argentilactone; type: biochemical, Paracoccidioides lutzii; details: for PbICL specific activity: treated with 18 µg/mL; for inhibition of PbICL: 18 µg/mL, over the phases
Protocol: as §1, §2

PbICLr = PbICLr (Paracoccidioides lutzii, UniProt C1H8F5); assay: Enzymatic activity of recombinant isocitrate lyase (PbICLr); type: biochemical; details: for Specific activity PbICLr: control 2.55±0.02
Protocol: Recombinant PbICL protein was obtained as described by Cruz. Briefly, Pbicl cDNA was inserted into the pET-32a (+) expression vector (Novagen, Inc,). The resulting plasmid was transformed into E. coli BL21 C43 (DE3) cells, and expression was induced at an A600 of 0.6 by the addition of 1 mm (final concentration) isopropyl thio-β-D-galactoside (IPTG) (Sigma-Aldrich). After induction, the cells were incubated for another 2 h at 36°C with shaking at 200 rpm. The cells were harvested by centrifugation at 10,000×g for 5 min at 4°C and resuspended in 1 × NaCl/Pi buffer. After incubation for 30 min with 100 µg/mL lysozyme, the cells were lysed by extensive sonication. The sample was centrifuged at 4°C and 8,000×g for 15 min, and the supernatant, which contained the soluble protein fraction, was collected. His-tagged ICL was purified using the Ni-NTA Spin Kit (Qiagen), and the tags were subsequently removed by the addition of EKMax™ enterokinase (Invitrogen).
as §1, §2

[4] = read-out: IC50 PbICLc Acetate, acetate
[5] = read-out: IC50 PbICLc Glucose, glucose
[6] = recombinant enzyme, N.I. = No inhibition found

Chain of PbICLr (C1H8F5 entry or part of it): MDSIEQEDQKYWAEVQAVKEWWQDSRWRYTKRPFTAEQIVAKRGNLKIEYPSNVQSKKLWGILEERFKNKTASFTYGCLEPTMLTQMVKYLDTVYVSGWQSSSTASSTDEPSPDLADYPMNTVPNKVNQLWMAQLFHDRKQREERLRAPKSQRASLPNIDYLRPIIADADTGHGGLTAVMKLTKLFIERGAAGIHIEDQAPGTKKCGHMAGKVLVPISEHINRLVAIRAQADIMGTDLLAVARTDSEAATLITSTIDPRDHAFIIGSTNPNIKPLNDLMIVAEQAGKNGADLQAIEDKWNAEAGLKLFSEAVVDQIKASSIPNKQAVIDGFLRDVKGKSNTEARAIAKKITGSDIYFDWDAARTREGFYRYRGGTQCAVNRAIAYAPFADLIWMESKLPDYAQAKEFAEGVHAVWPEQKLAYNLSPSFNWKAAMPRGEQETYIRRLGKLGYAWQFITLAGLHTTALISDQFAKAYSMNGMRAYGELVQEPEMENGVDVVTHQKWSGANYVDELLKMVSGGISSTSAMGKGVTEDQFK
Chain of PbICLc (C1H8F5 entry or part of it): as above

Row | Structure (SMILES) | MIC ([1]; acetate as carbon source) | MIC ([1]; glucose as carbon source) | effect on P. lutzii Pb01 yeast cells growth [1] | inhibition of the dimorphism mycelium to yeast [3] | inhibition of native PbICL activity (PbICLc) | Specific activity PbICLc Acetate (PbICLc) | IC50 (PbICLc; [4]) | IC50 (PbICLc; [5]) | IC50 (PbICLr) | Specific activity PbICLr (PbICLr; [6]) | Specific activity PbICLc Glucose (PbICLc) | IC50 PbICLc Acetate (PbICLc; acetate) | IC50 PbICLc Glucose (PbICLc; glucose) | effect against PbICLr (PbICLr; recombinant enzyme) | IC50 PbICLr (PbICLr; [6]) | other results
1 | CCCCC/C=C\[C@H]1CC=CC(=O)O1 [Argentilactone, 2H-Pyran-2-one, 6-(1-heptenyl)-5,6-dihydro-, [R-(Z)]] | 9 µg/mL (≈ 46.3 µM) | 18 µg/mL (≈ 92.7 µM) | dose-dependent inhibition | dose-dependent inhibition | inhibited | 0.040±0.001 U/mg | 50 ± 0.03 µM | 80 ± 0.02 µM | 28.8 ± 0.01 µM | 0.86±0.01 U/mg | – | – | – | – | – | decrease of viability [2]: approximately 15%; minimal inhibitory concentration (dermatophytes): 31 µg/mL (≈ 160 µM); toxicity to MRC5 cells (MRC5 cells): not toxic; PbICL specific activity (PbICL; Mycelium to Yeast, Acetate): 0.055±0.003 U; PbICL specific activity (PbICL; Mycelium to Yeast, Glucose): 0.055±0.001 U; PbICL specific activity (PbICL; Mycelium, Acetate): 0.055±0.005 U; PbICL specific activity (PbICL; Mycelium, Glucose): T 0.045±0.001 U; PbICL specific activity (PbICL; Yeast, Acetate): 0.120±0.003 U; PbICL specific activity (PbICL; Yeast, Glucose): 0.085±0.001 U; inhibition of PbICL (PbICL; acetate): ~45%; inhibition of PbICL (PbICL; glucose): ~30%
2 | CCCCCC1OC1C1CC=CC(=O)O1 [Epoxi argentilactone, 2H-Pyran-2-one, 5,6-dihydro-6-[(2S, 3S)-3-pentyl-2-oxiranyl] -, (6R)] | – | – | very small effect | did not interfere | No inhibition | N.I. ^** | – | – | – | N.I. ^** | N.I. ^** | N.I. ^** | N.I. ^** | no effect | N.I. ^** | –
3 | CCCCC[C@@H](O)[C@H](O)[C@H]1CC=CC(=O)O1 [Diol argentilactone, 2H-Pyran-2-one, 6-(1,2-dihydroxyheptyl)-5,6-dihydro-, [6R-(1S, 2R)]] | – | – | very small effect | did not interfere | No inhibition | N.I. ^** | – | – | – | N.I. ^** | N.I. ^** | N.I. ^** | N.I. ^** | no effect | N.I. ^** | –
4 | CCCCCCCC1CC=CC(=O)O1 (stereo in doubt) [Reduced argentilactone, 2H-Pyran-2-one, 6-heptyl-5,6-dihydro-, (6R)] | 9 µg/mL (≈ 45.9 µM) | 18 µg/mL (≈ 91.7 µM) | dose-dependent inhibition | the effect was reduced | inhibited | 0.067±0.004 U/mg | 60 ± 0.02 µM | 85 ± 0.01 µM | 30.2 ± 0.04 µM | 0.93±0.01 U/mg | 0.009±0.003 U/mg | – | – | – | – | –
5 | O=C(O)CC[N+](=O)[O-] [3-Nitropropionate, reference compound] | – | – | – | – | – | 0.036±0.002 U/mg | – | – | – | 0.81±0.01 U/mg | 0.008±0.001 U/mg | – | – | – | – | IC50 (PbICLc; acetate, read-out: IC50 PbICLc Acetate): 45.4 ± 0.01 µM; IC50 (PbICLc; glucose, read-out: IC50 PbICLc Glucose): 76 ± 0.01 µM; IC50 (PbICLr; recombinant enzyme, N.I. = No inhibition found, read-out: IC50 PbICLr): 25.7 ± 0.01 µM

From article PMC3994062, “Inhibition of Paracoccidioides lutzii Pb01 Isocitrate Lyase by the Natural Compound Argentilactone and Its Semi-Synthetic Derivatives” (PLoS ONE, 2014)
